This note sets out measurements from patent US20230079045A1 (priority 2019, published 2023).

Each structure is given as a SMILES string. pEC50: −log10 of the molar value.

In one experiment the test system is IFVA/Weiss/43. Description: cytopathic effect (CPE) antiviral test in MDCK cells, IFVA/Weiss/43. The class given is cell-based, influenza virus. The conditions noted are these: unidentified influenza virus, MDCK, 120 h, read-out: EC50(IFVA/Weiss/43), MDCK cells, CPE method, CCK-8 cell viability, 5 days.
For a further experiment, the system named is IFVA/Mal/302/54. Description: cytopathic effect (CPE) antiviral test in MDCK cells, IFVA/Mal/302/54. The class given is cell-based, influenza virus. The settings on record: unidentified influenza virus, MDCK, 120 h, read-out: EC50(IFVA/Mal/302/54), MDCK cells, CPE method, CCK-8 cell viability, 5 days. On the technique in general: Protection from cytopathic effect is a common read-out in antiviral testing.

With `CC(=O)Nc1cc(F)c2oc(-c3ccnc(C(=O)N4CCN(C(c5ccccc5)c5nnn(C(F)F)n5)CC4)c3)nc2c1` (stereo not drawn) [Compound 61, N-(2-(2-(4-((2-(difluoromethyl)-2H-tetrazol-5-yl)(phenyl)methyl)piperazine-1-carbonyl)pyridin-4-yl)-7-fluorobenzo[d]oxazol-5-yl)acetamide], the figures for the pEC50 with IFVA/Weiss/43 and in the experiment on IFVA/Mal/302/54 were 7.55 and 7.11, respectively.
The like results for `CC(=O)Nc1ccc2oc(-c3ccnc(C(=O)N4CCN(C(c5ccc(F)cc5)c5nnn(C)n5)CC4)c3)nc2c1` (stereo not drawn) [Compound 12, N-(2-(2-(4-((4-fluorophenyl)(2-methyl-2H-tetrazol-5-yl)methyl)piperazine-1-carbonyl)pyridin-4-yl)benzo[d]oxazol-5-yl)acetamide] were, in that order, 7.66 and 7.26.
As for `CC(=O)Nc1ccc2oc(-c3ccnc(C(=O)N4CCN(C(c5ccccc5)c5nnn(C)n5)C5(CC5)C4)c3)nc2c1` (stereo not drawn) [Compound 7, N-(2-(2-(4-((2-methyl-2H-tetrazol-5-yl)(phenyl)methyl)-4,7-diazaspiro[2.5]octane-7-carbonyl)pyridin-4-yl)benzo[d]oxazol-5-yl)acetamide], the values for the pEC50 with IFVA/Weiss/43 and in the experiment on IFVA/Mal/302/54 were 6.28 and 6.08, respectively.
The corresponding values for `CC(=O)Nc1ccc2oc(-c3ccnc(C(=O)N4CCN(C(c5ccccc5)c5nnn(C)n5)CC45CC5)c3)nc2c1` (stereo not drawn) [Compound 5, N-(2-(2-(7-((2-methyl-2H-tetrazol-5-yl)(phenyl)methyl)-4,7-diazaspiro[2.5]octane-4-carbonyl)pyridin-4-yl)benzo[d]oxazol-5-yl)acetamide] are 7.80 and 7.62.
Regarding `Cn1nnc(C(c2ccccc2)N2CC3CC(C2)N3C(=O)c2cc(-c3nc4cc(NC(=O)C5CC5)ccc4o3)ccn2)n1` (stereo not drawn) [Compound 21, N-(2-(2-(3-((2-methyl-2H-tetrazol-5-yl)(phenyl)methyl)-3,6-diazabicyclo[3.1.1]heptane-6-carbonyl)pyridin-4-yl)benzo[d]oxazol-5-yl)cyclopropanecarboxamide], the pEC50 in the experiment with IFVA/Weiss/43 was 6.79; with IFVA/Mal/302/54, 6.36.
Take `CC(=O)Nc1ccc2oc(-c3ccnc(C(=O)N4C5CCC4CN(C(c4ccccc4)c4nnn(CCF)n4)C5)c3)nc2c1` (stereo not drawn) [Compound 22, N-(2-(2-(3-((2-(2-fluoroethyl)-2H-tetrazol-5-yl)(phenyl)methyl)-3,8-diazabicyclo[3.2.1]octane-8-carbonyl)pyridin-4-yl)benzo[d]oxazol-5-yl)acetamide]: the pEC50 in the experiment with IFVA/Weiss/43 was 7.60; with IFVA/Mal/302/54, 7.48.
Regarding `Cn1nnc(C(c2ccccc2)N2CCN(C(=O)c3cc(-c4nc5cc(N6CCOC6=O)ccc5o4)ccn3)CC2)n1` (stereo not drawn) [Compound 50, 3-(2-(2-(4-((2-methyl-2H-tetrazol-5-yl)(phenyl)methyl)piperazine-1-carbonyl)pyridin-4-yl)benzo[d]oxazol-5-yl)oxazolidin-2-one], the pEC50 in the experiment on IFVA/Weiss/43 was 6.62; in the experiment with IFVA/Mal/302/54 it was 6.92.
The corresponding values for `Cn1ccnc1-c1ccc2oc(-c3ccnc(C(=O)N4CCN(C(c5ccccc5)c5nnn(C(F)F)n5)CC4)c3)nc2c1` (racemic) [Compound 88, (R/S)-(4-((2-(difluoromethyl)-2H-tetrazol-5-yl)(phenyl)methyl)piperazin-1-yl)(4-(5-(1-methyl-1H-imidazol-2-yl)benzo[d]oxazol-2-yl)pyridin-2-yl)methanone] are 8.70 and 8.70.
The like results for `CC(=O)Nc1ccc2oc(-c3ccnc(C(=O)N4CCC(O)(C(c5ccccc5)c5nnn(C)n5)CC4)c3)nc2c1` (stereo not drawn) [Compound 47, N-(2-(2-(4-hydroxy-4-((2-methyl-2H-tetrazol-5-yl)(phenyl)methyl)piperidine-1-carbonyl)pyridin-4-yl)benzo[d]oxazol-5-yl)acetamide] were, in that order, 7.46 and 7.09.
